These results are taken from patent US20250222028A1, “ENGINEERED IMMUNE CELL PLATFORM” (Cancer Research Technology Limited, priority 2022, published 2025).

For one series, the system named is NK cells. As to the kind of experiment: Flow cytometric analysis of Granzyme B and IFNγ in NK cells. The conditions noted are these: 10 μM, overnight (~18 hours). The series is classed as cell-based, mice. How it is done:
FIG. 10. GzmB content and IFNγ secretion are unaffected by Gli inhibition in NK cells. NK cells were isolated from C57BL/6 mice and treated with 10 μM GANT61 or carrier control (EtOH) overnight (˜18 hours) prior to analysis of intracellular granzyme B (GzmB) and IFNγ expression by flow cytometry. (A) Representative flow cytometry plots. (B) Quantification of flow cytometry plots. Data is from n=2 mice, 1 independent experiment.
(§1) To investigate this further, the effect of GANT61 inhibition on Granzyme B and IFNγ secretion was investigated. Cytotoxic CD4+ cells were generated from OT-II mice and treated with 5 μM GANT61 or carrier control on day 7 for 24 h prior to flow cytometric analysis of Granzyme B (GzmB) and IFNγ levels on day 8. NK cells were isolated from C57BL/6 mice and treated with 10 μM GANT61 or carrier control (EtOH) overnight (˜18 hours) prior to analysis of intracellular granzyme B (GzmB) and IFNγ expression by flow cytometry. In both cytotoxic CD4+ cells (FIG. 9) and NK cells (FIG. 10), the GzmB content and IFNγ secretion were unaffected by Gli inhibition.
(In general: A flow cytometer gives signals particle by particle.)

The subject of another series is P815 target cells. The series is classed as cell-based, human. The protocol: FIG. 15. GLI inhibitor GANT61 reduces tumour cell killing of human CD8+ cytotoxic T lymphocytes. PBMCs were isolated from Buffy Coats of healthy donors using SepMate PBMC Isolation Tubes. CD8+ T cells were isolated using negative selection (Miltenyi Biotec, CD8+ T Cell Isolation Kit) and plated with ImmunoCult™ Human CD3/CD28/CD2 T Cell Activator at 25 μl/mL in TexMACS cell culture media supplemented with 1001 U/mL human IL-2 and 100 U/ml Penicillin/Streptomycin. Human CTLs were incubated with Gli1/2 inhibitor GANT61 or EToH (carrier control) overnight and subsequently co-cultured with anti-CD3ε pulsed P815 target cells for 3 h at the indicated effector to target ratios and subjected to an LDH cytotoxicity assay. (A) Representative graph, (B) Quantification of N=3 donors normalised to killing of carrier treated cells at a 10:1 effector:target ratio. Error bars indicate SD. n=3 donors from 2 independent experiments. It is also known that Hh signalling in murine CD8+ T cells is not inducible via administration of extracellular Hh ligands (de la Roche et al. (2013)). Instead, Hh induction occurs via the modulation of L-type voltage-gated calcium (Cav) channels downstream of the T cell receptor. For example, Hanna et al. (2021) report that nifedipine-sensitive Cavs control Gli1 induction in naïve CD8+ T cells and CD8+ CTLs following TCR stimulation. […]

In the next series the test system is K562 target cells. As to the kind of experiment: Flow-cytometry based killing assay, human Vγ9Vδ2 gammadelta T cells with K562 target cells. The series is classed as cell-based. As to conditions: pre-treated overnight with GANT61, co-culture 24 h. How it is done: FIG. 12. GLI1 is important for tumour cell killing of human Vγ9Vδ2 gammadelta T cells and treatment with L-type voltage gated Ca2+ channel agonist FPL 64176 increases killing capacity. PBMCs were isolated from Buffy Coats of healthy donors using SepMate PBMC Isolation Tubes. Vγ9Vδ2 expansion was induced by plating PBMCs at 1×10^6 concentration with 1 μM of Zoledronate in the presence of 100 IU/mL IL-2 and 120 IU/mL IL-15. Cells were split every 2-3 days from day 6 until day 20. Killing assays were conducted between day 16-20. (A) Vγ9Vδ2 T lymphocytes were incubated with Gli1/2 inhibitor GANT61 or EToH (carrier control) overnight and subsequently co-cultured with K562 target cells for 24 h at the indicated effector to target ratios and subjected to a flow-cytometry based killing assay. n=1 individual donor. (B) Vγ9Vδ2 cells were pre-incubated with 10 μM FPL 64176 or EToH (carrier control) before being co-cultured with K562 target cells at indicated effector to target ratios and subjected to a flowcytometric cytotoxicity assay in the presence of 10 μM FPL 64176 or EToH (carrier control). Killing was assessed after 24 hours. Tumour cell killing normalised to carrier treated cells at a 10:1 effector:target ratio. n=4 individual healthy donors from 2 independent experiments. […]

Series [1] relates to RMA/S tumour cells. As to the kind of experiment: LDH killing assay, murine NK cells with NK-sensitive RMA/S cells. The conditions noted are these: 5 μM GANT61 vs carrier control. The series is classed as cell-based. The protocol: (§2) FIG. 4. Gli1 is important for specific tumour cell killing by murine NK cells. (A) NK cells were isolated from WT C57BL/6 mice and were treated using either the Gli1/Gli2 inhibitor GANT61 (squares) or carrier control (circles). LDH killing assays (left panel) and VITAL assays (right panel) were performed to assess specific cell killing of NK-sensitive RMA/S tumour cells. Left panel: Representative data of n=3 independent experiments. Right panel: data from 2 individual mice per genotype. (B) To specifically investigate the contribution of Gli1 towards NK cell effector function, LDH killing assays (left panel) and VITAL assays (right panel) were performed using NK cells isolated from both WT (circles) and Gli1 knockout (KO, squares) mice. Left panel: representative data from n=2 independent experiments. Right panel: data from 2 individual mice per genotype.
(§3) It was hypothesised that the therapeutic effect of L-type Cav channel agonists may be conserved between CD8+ T and NK cells. To investigate this hypothesis, NK cells were isolated from spleens of C57BL/6 wildtype mice using a MACS negative isolation protocol, and expanded in vitro for 7 days in the presence of 500 IU/L IL-2. […]

The next series relates to cytotoxic CD4+ T cells. Put plainly: Flow cytometric analysis of Granzyme B and IFNγ in cytotoxic CD4+ T cells. The series is classed as cell-based, mice. As to conditions: 5 μM, 24 h. How it is done:
FIG. 9. GzmB content and IFNγ secretion are unaffected by Gli inhibition in cytotoxic CD4+ T cells. Cytotoxic CD4+ cells were generated from OT-II mice and treated with 5 μM GANT61 or carrier control on day 7 for 24 h prior to flow cytometric analysis of Granzyme B (GzmB) and IFNγ levels on day 8. (A) Representative flow cytometry plots in unstimulated (top panel) or restimulated CD4+ T cells (bottom panel). (B) Quantification of steady state GzmB levels and IFNγ levels upon restimulation. Data is from n=3 independent experiments.
as §1

Series [2] concerns RMA/S tumour cells. As to the kind of experiment: VITAL assay, murine NK cells with NK-sensitive RMA/S cells. It is filed as cell-based. As to conditions: 5 μM GANT61 vs carrier control. The protocol: as §2, §3
In series [3] the test system is B cells (as target cells). As to the kind of experiment: LDH assay, murine cytotoxic CD4+ T cells (OT-II) with B cells as target cells. The series is classed as cell-based. The conditions noted are these: 5 μM, 24 h prior to co-culture, vs carrier control. The protocol: FIG. 8. Gli1 mediates specific cell killing by murine cytotoxic CD4+ T cells. Cytotoxic CD4+ T cells were generated from OT-II mice and treated with 5 μM Gli1/Gli2 inhibitor GANT61 (grey) or carrier control (black) for 24 hours before an LDH assay was performed to assess specific cell killing. Data is from n=3 independent experiments.
Experiments 1, 2, 3 and 4 identify Gli1 transcription as a mediator of specific cell killing in CD8+ CTLs and in NK cells, in humans and in mice. To investigate whether Gli1 also plays a role in driving the effector function of CD4+ T cells, cells were isolated from the spleens of OT-II mice and CTLs were generated. Cells were treated using GANT61 at a concentration of 5 μM or carrier control, 24 h prior to being co-cultured with B cells (as target cells) at the effector:target ratios indicated in FIG. 8.

For `CN(C)c1ccccc1CN1CCCN(Cc2ccccc2N(C)C)C1c1ccncc1` [GANT61], in the series with NK cells, the GzmB content result is “unaffected” and the IFNγ secretion entry is recorded as “unaffected”. The “tumour cell killing of human CD8+ cytotoxic lymphocytes” value in the series on P815 target cells is given as “reduces”. Further, the “killing capacity of K562 target cells by gammadelta T cells” value with K562 target cells is on record as “reduced killing capacity”. Besides, the “decrease in cell killing” value in the series on RMA/S tumour cells [1] was roughly 15%. Besides, in the series with cytotoxic CD4+ T cells, the GzmB content entry was “unaffected” and the IFNγ secretion entry is listed as “unaffected”. Further, the “specific tumour cell killing” value in the series with RMA/S tumour cells [2] is “greatly reduced”. Further, the “reduction in specific cell killing” value in series [3] is listed as 50%.
